Measurements reported in US20230092890A1, “1, 3, 4-Oxadiazole derivative compounds as histone deacetylase 6 inhibitor, and the pharmaceutical composition comprising the same” (Chong Kun Dang Pharmaceutical Corp., priority 2019, published 2023).

What was measured:
HDAC1 = molecular target: T1, HDAC1 (Homo sapiens, UniProt Q13547); assay: HDAC enzyme activity inhibition (in vitro), HDAC1 Fluorimetric Drug Discovery Assay Kit; type: biochemical; conditions: samples at 100, 1000 and 10000 nM; 37° C. 60 minutes; fluorescence Ex 390, Em 460; read-out: HDAC1 IC50
T1 construct: purchased Enzolifesciences BML-AK511
T1 sequence (Q13547 whole entry): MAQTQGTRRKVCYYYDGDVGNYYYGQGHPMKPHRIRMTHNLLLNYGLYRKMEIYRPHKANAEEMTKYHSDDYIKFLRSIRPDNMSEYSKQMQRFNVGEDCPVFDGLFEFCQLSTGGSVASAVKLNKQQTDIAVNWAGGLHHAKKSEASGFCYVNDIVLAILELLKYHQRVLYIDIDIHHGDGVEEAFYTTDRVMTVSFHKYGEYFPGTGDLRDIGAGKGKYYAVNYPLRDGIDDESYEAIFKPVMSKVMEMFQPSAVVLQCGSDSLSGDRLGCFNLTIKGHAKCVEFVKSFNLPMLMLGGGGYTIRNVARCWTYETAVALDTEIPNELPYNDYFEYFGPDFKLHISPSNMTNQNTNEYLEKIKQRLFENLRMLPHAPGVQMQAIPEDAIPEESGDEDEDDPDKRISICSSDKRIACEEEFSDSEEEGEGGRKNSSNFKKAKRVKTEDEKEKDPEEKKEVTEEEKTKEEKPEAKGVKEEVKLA
Experimental: <Experimental Example 1> Identification of HDAC Enzyme Activity Inhibition (In Vitro)
A selective HDAC6 inhibitor is important for selectivity of HDAC1 inhibition, which is a cause of side effects, and thus HDAC1/6 enzyme selectivity and cell selectivity (HDAC1: histone acetylation/HDAC6: tubulin acetylation) were identified.
(§1) A HDAC enzyme inhibitory capacity of a test material was measured by using HDAC1 Fluorimetric Drug Discovery Assay Kit (Enzolifesciences: BML-AK511) and HDAC6 human recombinant (Calbiochem: 382180). For a HDAC1 assay, samples were treated at a concentration of 100, 1000 and 10000 nM. For a HDAC6 assay, samples were treated at a concentration of 0.1, 1, 10, 100 and 1000 nM. After the above sample treatment, a reaction was continued at 37° C. for 60 minutes, then treated with a developer, and then subjected to a reaction at 37° C. for 30 minutes, after which fluorescence intensity (Ex 390, Em 460) was measured by using FlexStatin3 (Molecular device).

HDAC6 human recombinant = molecular target: T2, HDAC6 human recombinant (Homo sapiens, UniProt Q9UBN7); assay: HDAC enzyme activity inhibition (in vitro), HDAC6 assay; type: biochemical; conditions: samples at 0.1, 1, 10, 100 and 1000 nM; 37° C. 60 minutes; fluorescence Ex 390, Em 460; read-out: HDAC6 IC50
T2 construct: purchased Calbiochem 382180
T2 sequence (Q9UBN7 1-1215): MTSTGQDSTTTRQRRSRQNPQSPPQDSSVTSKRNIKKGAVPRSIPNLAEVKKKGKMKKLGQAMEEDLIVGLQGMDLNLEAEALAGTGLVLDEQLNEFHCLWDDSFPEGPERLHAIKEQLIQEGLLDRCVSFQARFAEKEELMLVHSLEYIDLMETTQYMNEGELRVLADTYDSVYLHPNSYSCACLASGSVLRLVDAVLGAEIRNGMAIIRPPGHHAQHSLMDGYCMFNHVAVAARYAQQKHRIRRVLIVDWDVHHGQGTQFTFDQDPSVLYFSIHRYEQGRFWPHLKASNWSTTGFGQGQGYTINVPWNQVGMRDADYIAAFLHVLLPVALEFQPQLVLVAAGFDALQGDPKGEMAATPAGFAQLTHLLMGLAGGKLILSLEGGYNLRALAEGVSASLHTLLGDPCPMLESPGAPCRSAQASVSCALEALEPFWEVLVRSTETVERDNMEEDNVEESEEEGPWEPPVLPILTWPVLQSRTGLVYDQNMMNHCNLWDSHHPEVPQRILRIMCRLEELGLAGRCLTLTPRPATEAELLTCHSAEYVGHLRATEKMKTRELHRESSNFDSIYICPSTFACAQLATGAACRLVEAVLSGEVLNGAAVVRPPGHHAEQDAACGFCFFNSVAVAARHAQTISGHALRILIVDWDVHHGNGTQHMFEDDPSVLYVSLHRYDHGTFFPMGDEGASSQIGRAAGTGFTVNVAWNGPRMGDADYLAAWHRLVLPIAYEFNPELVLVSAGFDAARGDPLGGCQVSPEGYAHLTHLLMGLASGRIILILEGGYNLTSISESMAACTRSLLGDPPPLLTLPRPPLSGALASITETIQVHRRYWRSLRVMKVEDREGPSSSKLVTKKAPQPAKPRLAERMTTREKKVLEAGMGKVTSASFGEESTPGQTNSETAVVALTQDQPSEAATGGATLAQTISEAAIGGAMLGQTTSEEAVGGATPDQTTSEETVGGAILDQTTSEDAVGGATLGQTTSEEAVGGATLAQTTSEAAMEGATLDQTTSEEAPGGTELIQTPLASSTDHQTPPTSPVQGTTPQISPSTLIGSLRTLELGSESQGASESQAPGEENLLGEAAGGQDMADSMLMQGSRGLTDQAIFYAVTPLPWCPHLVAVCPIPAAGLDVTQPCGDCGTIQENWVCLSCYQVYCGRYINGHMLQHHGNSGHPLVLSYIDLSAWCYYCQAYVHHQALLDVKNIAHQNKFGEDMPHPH
Experimental: as §1, with “For a HDAC6 assay, samples were treated at a concentration of 0.1, 1, 10, 100 and 1000 nM.” left out

| Compound | IC50 (HDAC1) [nM] | IC50 (HDAC6 human recombinant) [nM] |
| --- | --- | --- |
| O=c1n(Cc2ccc(-c3nnc(C(F)F)o3)cc2F)c2ccccc2n1C1CN(C2COC2)C1 [Compound 23, 1-(4-(5-(difluoromethyl)-1,3,4-oxadiazole-2-yl)-2-fluorobenzyl)-3-(1-(oxetan-3-yl)azetidine-3-yl)-1,3-dihydro-2H-benzo[d]imidazole-2-one] | > 10000 | 241 |
| O=c1n(CCN2CC3(COC3)C2)c2ccccc2n1Cc1ccc(-c2nnc(C(F)F)o2)cc1F [Compound 24] | > 10000 | 137 |
| O=c1n(CCN2CC3(COC3)C2)c2ccccc2n1Cc1ccc(-c2nnc(C(F)F)o2)cn1 [Compound 25, 1-(2-(2-oxa-6-azaspiro[3.3]heptane-6-yl)ethyl)-3-((5-(5-(difluoromethyl)-1,3,4-oxadiazole-2-yl)pyridine-2-yl)methyl)-1,3-dihydro-2H-benzo[d]imidazole-2-one] | > 10000 | 84 |
| O=c1n(CCN2CC3(COC3)C2)c2ccccc2n1Cc1ccc(-c2nnc(C(F)F)o2)cc1 [Compound 26, 1-(2-(2-oxa-6-azaspiro[3.3]heptane-6-yl)ethyl)-3-(4-(5-(difluoromethyl)-1,3,4-oxadiazole-2-yl)benzyl)-1,3-dihydro-2H-benzo[d]imidazole-2-one] | > 10000 | 209 |
| O=c1n(Cc2ccc(-c3nnc(C(F)F)o3)cc2F)c2ccccc2n1C1CC2(COC2)C1 [Compound 27, 1-(4-(5-(difluoromethyl)-1,3,4-oxadiazole-2-yl)-2-fluorobenzyl)-3-(2-oxaspiro[3.3]heptane-6-yl)-1,3-dihydro-2H-benzo[d]imidazole-2-one] | > 10000 | 110 |
| O=c1n(Cc2ccc(-c3nnc(C(F)F)o3)cn2)c2ccccc2n1C1CC2(COC2)C1 [Compound 28, 1-((5-(5-(difluoromethyl)-1,3,4-oxadiazole-2-yl)pyridine-2-yl)methyl)-3-(2-oxaspiro[3.3]heptane-6-yl)-1,3-dihydro-2H-benzo[d]imidazole-2-one] | > 10000 | 64 |
| O=c1n(Cc2ccc(-c3nnc(C(F)F)o3)cc2)c2ccccc2n1C1CC2(COC2)C1 [Compound 29, 1-(4-(5-(difluoromethyl)-1,3,4-oxadiazole-2-yl)benzyl)-3-(2-oxaspiro[3.3]heptane-6-yl)-1,3-dihydro-2H-benzo[d]imidazole-2-one] | > 10000 | 210 |
| COCCN1Cc2ccccc2N(Cc2ccc(-c3nnc(C(F)F)o3)cc2)C1=O [Compound 30, 1-(4-(5-(difluoromethyl)-1,3,4-oxadiazole-2-yl)benzyl)-3-(2-methoxyethyl)-3,4-dihydro quinazoline-2(1H)-one] | > 10000 | 444 |
| COCCN1Cc2ccccc2N(Cc2ccc(-c3nnc(C(F)F)o3)cn2)C1=O [Compound 31, 1-((5-(5-(difluoromethyl)-1,3,4-oxadiazole-2-yl)pyridine-2-yl)methyl)-3-(2-methoxyethyl)-3,4-dihydroquinazoline-2(1H)-one] | > 10000 | 108 |
| CN1CC(N2Cc3ccccc3N(Cc3ccc(-c4nnc(C(F)F)o4)cc3F)C2=O)C1 [Compound 32, 1-(4-(5-(difluoromethyl)-1,3,4-oxadiazole-2-yl)-2-fluorobenzyl)-3-(1-methylazetidine-3-yl)-3,4-dihydroquinazoline-2(1H)-one] | > 10000 | 228 |
| CN1CCC(N2Cc3ccccc3N(Cc3ccc(-c4nnc(C(F)F)o4)cc3F)C2=O)CC1 [Compound 33, 1-(4-(5-(difluoromethyl)-1,3,4-oxadiazole-2-yl)-2-fluorobenzyl)-3-(1-methylpiperidine-4-yl)-3,4-dihydroquinazoline-2(1H)-one] | > 10000 | 169 |
| O=c1n(Cc2ccc(-c3nnc(C(F)F)o3)cc2F)c2ccccc2n1C1CCOCC1 [Compound 34, 1-(4-(5-(difluoromethyl)-1,3,4-oxadiazole-2-yl)-2-fluorobenzyl)-3-(tetrahydro-2H-pyran-4-yl)-1,3-dihydro-2H-benzo[d]imidazole-2-one] | > 10000 | 235 |

Results, then the compound that gave them:

| IC50 (HDAC1) [nM] | IC50 (HDAC6 human recombinant) [nM] | Compound |
| --- | --- | --- |
| > 10000 | 239 | O=c1n(Cc2ccc(-c3nnc(C(F)F)o3)cc2F)c2ccccc2n1C1CCN(C2COC2)CC1 [Compound 16, 1-(4-(5-(difluoromethyl)-1,3,4-oxadiazole-2-yl)-2-fluorobenzyl)-3-(1-(oxetan-3-yl)piperidine-4-yl)-1,3-dihydro-2H-benzo[d]imidazole-2-one] |
| > 10000 | 214 | CC(=O)N1CCC(n2c(=O)n(Cc3ccc(-c4nnc(C(F)F)o4)cc3F)c3ccccc32)CC1 [Compound 17, 1-(1-acetylpiperidine-4-yl)-3-(4-(5-(difluoromethyl)-1,3,4-oxadiazole-2-yl)-2-fluorobenzyl)-1,3-dihydro-2H-benzo[d]imidazole-2-one] |
| > 10000 | 267 | CS(=O)(=O)N1CCC(n2c(=O)n(Cc3ccc(-c4nnc(C(F)F)o4)cc3F)c3ccccc32)CC1 [Compound 18, 1-(4-(5-(difluoromethyl)-1,3,4-oxadiazole-2-yl)-2-fluorobenzyl)-3-(1-(methylsulfonyl)piperidine-4-yl)-1,3-dihydro-2H-benzo[d]imidazole-2-one] |
| > 10000 | 2420 | O=c1n(Cc2ccc(-c3nnc(C(F)F)o3)cc2F)c2ccccc2n1C1CCN(Cc2cccc3cc[nH]c23)CC1 [Compound 19, 1-(1-((1H-indole-7-yl)methyl)piperidine-4-yl)-3-(4-(5-(difluoromethyl)-1,3,4-oxadiazole-2-yl)-2-fluorobenzyl)-1,3-dihydro-2H-benzo[d]imidazole-2-one] |
| > 10000 | 285 | CN1CCC(n2c(=O)n(Cc3ccc(-c4nnc(C(F)F)o4)cc3F)c3ccccc32)C1 (centres unmarked) [Compound 20, 1-(4-(5-(difluoromethyl)-1,3,4-oxadiazole-2-yl)-2-fluorobenzyl)-3-(1-methylpyrrolidine-3-yl)-1,3-dihydro-2H-benzo[d]imidazole-2-one] |
| > 10000 | 299 | O=c1n(Cc2ccc(-c3nnc(C(F)F)o3)cc2F)c2ccccc2n1C1CCN(C2COC2)C1 (centres unmarked) [Compound 21, 1-(4-(5-(difluoromethyl)-1,3,4-oxadiazole-2-yl)-2-fluorobenzyl)-3-(1-(oxetan-3-yl)pyrrolidine-3-yl)-1,3-dihydro-2H-benzo[d]imidazole-2-one] |
| > 10000 | 109 | CN1CC(n2c(=O)n(Cc3ccc(-c4nnc(C(F)F)o4)cc3F)c3ccccc32)C1 [Compound 22, 1-(4-(5-(difluoromethyl)-1,3,4-oxadiazole-2-yl)-2-fluorobenzyl)-3-(1-methylazetidine-3-yl)-1,3-dihydro-2H-benzo[d]imidazole-2-one] |
